Holding throughout (assay): NCI tumour cell line growth inhibition, 48 h
In assay [1] the test system is SNB-75 CNS.
The subject of assay [2] is UACC-62 melanoma.
The subject of assay [3] is OVCAR-8 ovarian.
In assay [4] the test system is HOP-92 NSCLC.
Assay [5] has as its system RPMI-8226 leukemia.
For assay [6], the system named is TK-10 renal.
Assay [7] concerns A549 NSCLC.
In assay [8] the test system is NCI-H23 lung.
Assay [9] deals with SF-268 CNS.
In assay [10] the test system is BT-549 breast.

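Assay format: 96-well plates, 48-hour exposure. GI50: concentration for 50% inhibition of growth. TGI denotes the concentration required for complete inhibition of growth.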

With `COc1cc2oc3c(c(=O)c2c(O)c1/C=C/C(C)C)C(C=C(C)C)Oc1cc(O)ccc1-3` (stereo unspecified), the TGI amounted to 29.4 µM in assay [1]; 32.3 µM in assay [2]; 30.8 µM in [3]; 29.3 µM in assay [4]; 33.9 µM in [5]; 31.5 µM in assay [6]. In addition, the TGI in [7] amounted to 28.8 µM; in assay [8] it was 30.5 µM; in [9] it was 36.8 µM; in assay [10], 23.4 µM.

As to `Cc1cccc2c3c(sc12)C(c1ccc(F)cc1)C(C#N)=C(N)O3` (stereo unspecified), the GI50 was 0.0236 µM in assay [1]; 0.0433 µM in assay [2]; 0.128 µM in [3]; 1.07 µM in assay [4]; 0.048 µM in assay [5]; 5.51 µM in [6]. In addition, the GI50 in assay [7] is 0.135 µM; in assay [8] it was 0.127 µM; in [9], 0.35 µM; in assay [10], 0.297 µM. The TGI in assay [1] was determined as 0.0936 µM; in [2], 11.7 µM; in [3] it was 14.2 µM; in [4], 8.26 µM; in assay [5], 8.31 µM; in assay [6], 23 µM. The TGI in assay [7] was found to be 14.1 µM; in assay [8] it was 12 µM; in assay [9], 17.5 µM; in [10] it was 3.18 µM.

Consider `COCCOCCOCc1n(Cc2ccc3ccccc3n2)c2ccccc2[n+]1Cc1ccc2ccccc2n1`, for which the GI50 is 0.317 µM in [1]; 0.424 µM in assay [2]; 1.27 µM in [3]; 0.217 µM in [4]; 0.138 µM in assay [5]; 4.02 µM in assay [6]. Besides, the GI50 in [7] was 3.21 µM; in [8], 0.657 µM; in [9], 0.903 µM; in assay [10] it was 0.369 µM. Moreover, the TGI amounted to 4.3 µM in assay [1]; 10.2 µM in assay [2]; 12.6 µM in [3]; 2.74 µM in assay [4]; 12.4 µM in assay [5]; 16.2 µM in assay [6]. Moreover, the TGI in assay [7] is 69.5 µM; in assay [8] it was 12.2 µM; in assay [9] it was 16.2 µM; in [10] it was 4.42 µM.

As for `Cc1cc(O)c(C2=NN(c3ccc(S(N)(=O)=O)cc3)C(/C=C/c3ccccc3)C2)cc1Cl` (stereo unspecified), the GI50 was 3.39 µM in assay [1]; 2.89 µM in [2]; 3.03 µM in assay [3]; 2.36 µM in assay [4]; 4.95 µM in assay [5]; 14.8 µM in [6]. Besides, the GI50 in assay [7] was 11 µM; in assay [8] it was 1.68 µM; in assay [9] it was 5.63 µM; in [10] it was 6.12 µM. In addition, the TGI in assay [1] worked out at 16.1 µM; in assay [2], 11.4 µM; in assay [3] it was 20.2 µM; in assay [4], 8.48 µM; in assay [5], 20.6 µM; in [6], 29.9 µM. In addition, the TGI in assay [7] was 30.8 µM; in assay [8], 12.5 µM; in assay [9], 19.5 µM; in assay [10], 21.3 µM.

With `NC(=O)c1sc(-n2cnc3cc(C(F)(F)F)ccc32)cc1OCc1ccccc1Br`, the GI50 was 8.72 µM in assay [1]; > 21.6 µM in assay [2]; 21.4 µM in assay [3]; 8.02 µM in assay [4]; > 23.6 µM in assay [5]; > 25 µM in assay [6]. Also, the GI50 in assay [7] is > 25 µM; in assay [8], > 25 µM; in assay [9], > 17.5 µM; in [10], > 25 µM. In addition, the TGI was > 18.8 µM in assay [1]; > 25 µM in [2]; > 25 µM in assay [3]; > 25 µM in [4]; > 25 µM in [5]; > 25 µM in assay [6]. For the same compound, the TGI in assay [7], in assay [8], in assay [9] and in [10] was > 25 µM each time.

Consider `CCN1C(=NCCO)NS(=O)(=O)c2ccccc21`, for which the TGI in assay [2], in assay [3], in [4], in assay [6], in [7] and in [8] was > 100 µM each time. Besides, the TGI in [9] and in assay [10] was > 100 µM throughout.

Take `CCCCNc1ccc(Nc2ccccc2)cc1`: the GI50 in [1] is 8.46 µM; in assay [2], 8.2 µM; in assay [4], 3.42 µM; in assay [5], 1.72 µM; in assay [6], 4.27 µM; in assay [7], 4.38 µM. The GI50 in assay [8] is 3.15 µM; in [9] it was 13.3 µM; in assay [10], 2.84 µM. The TGI in assay [1] is 61.9 µM; in [2], > 100 µM; in assay [4], 32.5 µM; in assay [5], 4.86 µM; in [6] it was 56.3 µM; in assay [7], 52.9 µM. The TGI in assay [8] was 43 µM; in [9] it was > 100 µM; in assay [10] it was 21.6 µM.

Regarding `COc1c(N2CCN(CN3C(=O)C(=O)c4cc(Cl)ccc43)C(C)C2)c(F)cc2c(=O)c(C(=O)O)cn(C3CC3)c12` (stereo unspecified), the GI50 was > 100 µM in [1]; 20.6 µM in assay [2]; 51.9 µM in assay [3]; 9.07 µM in assay [5]; 27.1 µM in assay [6]; 49.4 µM in assay [7]. Besides, the figures for the GI50 in [8], in assay [9] and in assay [10] were 22 µM, 26.8 µM and 37.3 µM, respectively. Further, the TGI in assay [1] is > 100 µM; in assay [2] it was 65.3 µM; in assay [3] it was > 100 µM; in assay [5], 25.7 µM; in [6] it was > 100 µM; in [7], > 100 µM. Also, the TGI in assay [8], in assay [9] and in [10] was > 100 µM in each case.

Take `CN(CCC(=O)/C(=C\c1ccccc1)c1ccc(Cl)cc1)Cc1ccccc1`: the GI50 in assay [1] is 10.2 µM; in assay [2], 1.91 µM; in [3], 3.32 µM; in assay [4], 2.55 µM; in assay [6], 2.34 µM; in assay [7], 12.8 µM. For the same compound, the GI50 in assay [8] was 2.94 µM; in assay [9], 2.76 µM; in [10], 2.94 µM. Moreover, the TGI came out at 31.8 µM in assay [1]; 4.37 µM in assay [2]; 14.8 µM in assay [3]; 6.16 µM in assay [4]; 5.43 µM in [6]; 31.9 µM in assay [7]. Further, the TGI in assay [8] was found to be 8.62 µM; in assay [9], 10 µM; in assay [10], 8.76 µM.

As to `O=C(O)c1c(Br)c(Br)c(Br)c(Br)c1C1c2ccc(O)cc2Oc2cc(O)ccc21`, the TGI in assay [1], in assay [2], in [3], in [4], in assay [5] and in [6] was > 100 µM in each case. Also, the TGI in assay [7], in assay [9] and in [10] was > 100 µM in each case.

`Cc1nc2cc(Nc3nc(Nc4ccc(F)cc4)nc(N4CCOCC4)n3)ccc2n1Cc1ccccc1`: the GI50 in assay [1] was 2.73 µM; in assay [3], 4.34 µM; in assay [5] it was 2.19 µM; in assay [7], 3.2 µM; in assay [8] it was 6.43 µM; in assay [9] it was 5.41 µM. The GI50 in assay [10] was 8.19 µM. For the same compound, the TGI was 20.4 µM in [1]; 23.6 µM in assay [3]; 5.86 µM in assay [5]; 14.2 µM in assay [7]; 30.6 µM in assay [8]; 49.2 µM in [9]. In assay [10], the TGI amounted to 25.7 µM.

As to `Cc1ccc(-n2nnnc2-c2cnc(N3CCOCC3)nc2-c2cccc(C(F)(F)F)c2)cc1`, the GI50 in assay [1] is 1.6 µM; in [2], 1.73 µM; in [3], 2.83 µM; in [5], 1.28 µM; in assay [6], 1.54 µM; in [7], 2.26 µM. Also, the GI50 in assay [8] was 1.36 µM; in [9], 3 µM; in [10], 8.3 µM. The TGI in assay [1] was 3.98 µM; in assay [2], 25.2 µM; in assay [3], > 22.5 µM; in [5], 3.77 µM; in assay [6], 4.56 µM; in assay [7], > 50 µM. The TGI came to 4.11 µM in [8], 29.4 µM in assay [9] and 31.3 µM in assay [10].

Turning to `COC1CC(N)C(O)C(C)O1` (stereo unspecified), the TGI in assay [1], in assay [2], in [3], in assay [4], in assay [5] and in [8] was > 100 µM in each case. Moreover, the TGI in [9] and in assay [10] was > 100 µM throughout.

For `CCOc1ccc2c(c1)c(CC(=O)O)cn2C`, the TGI in assay [2], in assay [3], in assay [4], in assay [5], in assay [6] and in assay [7] was > 100 µM in each case. In addition, the TGI in assay [8], in [9] and in [10] was > 100 µM throughout.

Regarding `CC1(C)Cc2c(Br)c(Br)c(Br)c(OCC(O)CN3CCN(c4ccccn4)CC3)c2O1` (stereo unspecified), the GI50 is 16.3 µM in assay [1]; 14.1 µM in assay [2]; 20.9 µM in assay [3]; 4.87 µM in [4]; 14.3 µM in assay [6]; 13.4 µM in assay [8]. The GI50 is 12.9 µM in assay [9] and 11.6 µM in assay [10]. The TGI in assay [1] is 39 µM; in assay [2], 28.1 µM; in assay [3], 45.3 µM; in [4], 19.8 µM; in assay [6], 30.8 µM; in [8], 32 µM. The TGI in assay [9] turned out to be 39.6 µM; in assay [10], 26 µM.

In the case of `COc1cc(Cl)cc(-c2nn(-c3cccc(NC(=O)Nc4ccc(Cl)c(Cl)c4)c3)cc2-c2ccncc2)c1`, the GI50 in assay [1] is 2.11 µM; in assay [2], 2.4 µM; in assay [3], 2.3 µM; in assay [5], 0.652 µM; in [7], 1.48 µM; in assay [8], 2.62 µM. The GI50 in assay [9] is 3.27 µM; in assay [10] it was 2.62 µM. In addition, the TGI amounted to 48.6 µM in [1]; 16.3 µM in assay [2]; 11.2 µM in [3]; 3.37 µM in assay [5]; 15.3 µM in assay [7]; 9.04 µM in [8]. The TGI in assay [9] is > 100 µM; in assay [10], 8.28 µM.

Regarding `COC(=O)C(C(=O)OC)C(Br)C(Br)C(Br)c1ccccc1` (stereo unspecified), the GI50 in [1] was 12.5 µM; in [2], 9.46 µM; in assay [3], 4.86 µM; in assay [4] it was 11.8 µM; in assay [5], 2.68 µM; in [7], 16.8 µM. Moreover, the GI50 in assay [9] was 14.6 µM; in [10], 14.4 µM. For the same compound, the TGI stood at 25 µM in [1]; 21.5 µM in [2]; 17.2 µM in assay [3]; 25.3 µM in assay [4]; 7.8 µM in assay [5]; 32.6 µM in [7]. For the same compound, the TGI in assay [9] stood at 29.6 µM; in assay [10], 27.9 µM.

With `Cc1[nH]c2cc(F)ccc2c1-c1nc2c3cccnc3c3ncccc3c2[nH]1`, the GI50 in assay [1] was 0.473 µM; in assay [3], 0.216 µM; in assay [4], 0.204 µM; in assay [5] it was 0.771 µM; in assay [6] it was 0.396 µM; in assay [7], 0.381 µM. The GI50 is 0.343 µM in assay [8], 0.21 µM in assay [9] and 0.215 µM in [10]. Also, the TGI turned out to be 1.84 µM in [1]; 1.22 µM in assay [3]; 1.41 µM in assay [4]; 2.91 µM in assay [5]; 2.34 µM in assay [6]; 2.35 µM in assay [7]. Moreover, the values for the TGI in assay [8], in [9] and in [10] were 1.89 µM, 2.2 µM and 1.57 µM, respectively.

Source of the values: PubChem BioAssay (NCI).
